Source: article PMC7849180 (Frontiers in Pharmacology, 2020)
Like-named read-outs stand apart in the source and are kept apart here.

Columns and labels:
JAK2 signaling pathway = assay: JAK2 signaling in NSG mice injected with HCD-57-JAK2V617F cells; type: in vivo; settings: single 200 mg/kg intraperitoneally, 4 h
Protocol: Suzhou Zelgen Biopharmaceuticals Co., Ltd. Jaktinib Hydrochloride Tablets Chemical Drug Class 1 New Drug […]
cells at a concentration of 1 μM. […]
effectively affect the primary cells harboring the JAK2V617F mutation in patients with […]
In Vivo Pharmacodynamic Study of ZG0128 in Mouse Model of Myeloproliferative Neoplasm
Primary myelofibrosis (PMF) is characterized by the formation of bone marrow fibrous tissues (scar-like) caused by the abnormal proliferation of three types of cells (platelets, white blood cells, and red blood cells). At present, there is still no particularly effective treatment for these diseases. JAKV617F transgenic mice and JAK2V617F bone marrow transplanted mice can develop the pathological characteristics of myeloproliferative neoplasm, which can be used to effectively evaluate the efficacy of drugs used in the treatment of myeloproliferative neoplasms.
HCD-57-JAK2V617F cells were intravenously injected into NSG mice. Three weeks later, the mice were injected intraperitoneally with a single dose of 200 mg/kg of compound ZG0128, and euthanized 4 h after drug administration. The results of […]
nucleated cells in spleen were HCD-57-JAK2V617F transplanted cells. Western blot […]
the phosphorylation of downstream major signaling proteins of JAK2, i.e., ERK1/2, […]
inhibit the JAK2 signaling pathway in vivo. […]

[1] = set-up: species or system Wistar rats; settings: rat, in vivo, po
Excerpt: Suzhou Zelgen Biopharmaceuticals Co., Ltd. Jaktinib Hydrochloride Tablets Chemical Drug Class 1 New Drug chromosomal structural aberrations in CHL cells. Therefore, the results of the chromosomal aberration test were negative.
Mouse Bone Marrow Micronucleus Test
A mouse bone marrow micronucleus test of ZG0128 has been performed. After multiple doses of ZG0128 are given to mice via oral gavage, the incidence of micronucleated polychromatic erythrocytes in the bone marrow is observed to estimate the damage to chromosomal integrity in bone marrow cells and subsequent abnormality of chromosome segregation, so as to determine the presence of genotoxicity. The results […]
were observed every day. […] The body weight of female rats was measured twice a week before pregnancy and on days 0, 2, 4, 6, 9, 12, and 15 of gestation after successful mating. The food intake of male and female rats was measured once a week before mating. After successful mating, the food intake of female rats was measured on days 0, 6, and 12 of gestation. […] In addition, the weights of testes, epididymides, prostate, and seminal vesicles were measured to calculate the organ coefficients. […] In addition, the weights of the pregnant uterus, placenta and uterus, placenta, ovaries, brain, and the total weight of live fetuses were measured. […]

[2] = Excerpt: Chemical Drug Class 1 New Drug
A Toxicity Test in Beagle Dogs Administered ZG0128 by Oral Gavage for 28 […]
The study consisted of 4 groups, including the control group and dose groups of […]
active ingredient ZG0163). Each group contained 10 dogs, with 5 male dogs and 5 female dogs. The dogs in each group were orally administered with control (empty capsule) or the corresponding doses of ZG0128 once a day for 28 consecutive days, followed by 28 days for recovery after drug discontinuation. The day of the first dose is defined as day 1 of the dosing period. During the dosing period and the recovery period, the general conditions of the dogs in different groups were observed every day.
The body weight and food intake of the dogs were measured twice a week during the dosing period and once a week during the recovery period, respectively. At 2-3 h after the dosing on day 14, and 2-3 h after the last dose as well as on the last day of the recovery period. The lead II electrocardiogram, blood pressure and body temperature (anal temperature) were measured. One ophthalmic examination and routine urinalysis were arranged at the end of dosing and recovery periods, respectively. Hematology and blood biochemistry tests were performed on day 15 and the end of the dosing and recovery periods, respectively.
In all other groups, 6 and 4 dogs
(male:female=1:1) were dissected at the end of dosing and recovery periods, respectively. After the dogs were euthanized, bone marrow smear, gross anatomy, organ weight measurement and histopathological examination of tissue samples were performed. Blood samples were collected from dogs before the first/last dose and 0.5, 1, 2, 4, 6, 10, 24 h after drug administration in ZG0128 dose groups. Blood samples were collected before the first/last dose and 2 h after the first/last dose, respectively.
LC-MS/MS was used to measure the concentration of the original drug ZG0163 and […]
the amide hydrolysis metabolite ZG0245 in blood samples at various time points and to calculate AUClast, Cmax, Tmax, and other toxicokinetic parameters.

myelofibrosis = assay: Myelofibrosis in JAK2V617F bone marrow transplanted mice; type: in vivo; settings: 100 mg/kg, 5 weeks
IKKβ = IKKβ (Homo sapiens, UniProt O14920); assay: Phosphorylation of IκBα by IKKβ; type: biochemical
[3] = in vivo
Protocol: Food effect part was a two-period crossover study and conducted after finishing both SAD and MAD parts. […] For group A, the urine and feces samples for pharmacokinetic (PK) analysis were collected in the first period.
Safety was assessed according to the NCI CTCAE version 4.03, including AEs of changes in vital signs, 12-lead ECGs, abdominal ultrasound, chest X-ray, physical examination and clinical laboratory tests. Abdominal ultrasound and chest X-ray were only performed at screening. 12-lead ECGs, physical examination and clinical laboratory tests were conducted in screening and day 3 after administration in SAD cohorts; days 4, 7 and 12 in MAD cohorts; day 8 in food effect cohort. Vital signs were measured at screening and admission, 0 h (pre-dose) and 2, 6, 24, 48 h after administration in SAD cohorts; 0, 2, 6 h on day 1, 0 h on days 2, 3, 4, 7, 0, 2, 6, 24, 48 h after the last dose in MAD cohorts; 0, 2, 6, 24, 48, 72, 120 h in period 1 and 2, 6, 24, 48 h in period two in food effect cohort.

Chain of IKKβ (O14920 whole entry, species assumed): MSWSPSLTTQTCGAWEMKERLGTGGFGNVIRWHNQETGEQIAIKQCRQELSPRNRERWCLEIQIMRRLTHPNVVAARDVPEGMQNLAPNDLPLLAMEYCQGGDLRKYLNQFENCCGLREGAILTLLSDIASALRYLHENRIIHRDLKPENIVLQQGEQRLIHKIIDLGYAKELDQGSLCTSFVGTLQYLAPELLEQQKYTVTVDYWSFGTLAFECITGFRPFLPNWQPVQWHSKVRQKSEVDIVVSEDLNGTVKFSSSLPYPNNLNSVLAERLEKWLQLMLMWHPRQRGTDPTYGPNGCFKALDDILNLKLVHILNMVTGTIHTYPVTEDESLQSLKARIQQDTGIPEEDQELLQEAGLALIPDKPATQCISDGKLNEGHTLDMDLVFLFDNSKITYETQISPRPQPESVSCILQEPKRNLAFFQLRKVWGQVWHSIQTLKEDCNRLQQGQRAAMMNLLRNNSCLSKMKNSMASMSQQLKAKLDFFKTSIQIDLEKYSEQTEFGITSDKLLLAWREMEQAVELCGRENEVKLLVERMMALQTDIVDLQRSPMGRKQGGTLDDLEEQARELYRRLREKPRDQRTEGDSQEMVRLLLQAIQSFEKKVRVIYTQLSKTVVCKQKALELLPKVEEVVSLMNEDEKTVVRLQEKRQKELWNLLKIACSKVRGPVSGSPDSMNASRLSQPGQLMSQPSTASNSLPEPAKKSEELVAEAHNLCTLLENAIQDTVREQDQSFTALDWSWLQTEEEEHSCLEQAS

Molecule | phosphorylation of ERK1/2, Akt and STAT5 in splenocytes (JAK2 signaling pathway) | NOAEL for reproductive functions and embryonic development [1] [mg/kg] | NOAEL ([2]; 28 days) [mg/kg] | dose causing death ([2]; 28 days) [mg/kg] | highest non-severely toxic dose (HNSTD) ([2]; dog, in vivo) [mg/kg] | progression of myelofibrosis (myelofibrosis) | effect on phosphorylation of IκBα by IKKβ (IKKβ) | NOAEL ([2]; Beagle dogs, oral, 28 days) [mg/kg/day] | treatment-related Grade 4–5 AEs [3]
Cl.Cl.O.[2H]C1([2H])COCC([2H])([2H])N1c1ccc(Nc2nccc(-c3ccc(C(=O)NCC#N)cc3)n2)cc1 [ZG0128, Jaktinib Dihydrochloride Monohydrate] | significantly inhibited | 18 | 18.3 | 195.2 | 61 | significantly and effectively inhibited the progression of myelofibrosis | – | – | –
Jaktinib | – | – | 18.3 | – | – | – | no significant effects | 18.3 | Note: No treatment-related Grade 4–5 AEs observed in food effect cohorts.
